{"source": "patent USRE49742E1", "about": "“Drug delivery system for administration of poorly water soluble pharmaceutically active substances” (Vivesto AB, priority 2007, dated 2023)", "key": {"[1]": {"experiment": "Solubility of calcium salt in water (concentration in filtered solution, UV method)", "format": "physicochemical", "settings": "concentration in solution filtered through 0.2 μm filter", "method": "Aqueous solutions of a sodium salt of the methyl ester of N-all-trans-retinoyl cysteic acid (5 ml, 15 mg/ml) and calcium chloride (3 ml, 30 mg/ml) were mixed in a 10 ml test tube. During the mixing a fine precipitation emerged. The precipitate was separated by centrifugation of the test tube at 3000 rpm for 10 min. The supernatant was removed and the precipitate was shaken with 8 ml of water followed by a new centrifugation. After three additional washing procedures as described above the supernatant was filtered through a 0.2 μm filter in order to remove possible large aggregates of the product. […] The reaction is illustrated by the below general scheme involving chlorides of any polyvalent metal ions, not only calcium ions."}, "[2]": {"settings": "cited from earlier work"}}}
{"molecule": "COC(=O)C(CS(=O)(=O)[O-])NC(=O)/C=C(C)/C=C/C=C(C)/C=C/C1=C(C)CCCC1(C)C.COC(=O)C(CS(=O)(=O)[O-])NC(=O)/C=C(C)/C=C/C=C(C)/C=C/C1=C(C)CCCC1(C)C.[Ca+2]", "note": "(stereo not drawn) [calcium salt of the methyl ester of N-all-trans-retinoyl cysteic acid]", "values": [{"measurement": "solubility", "setting": "[1]", "result": 200, "unit": "µg/mL"}]}
{"molecule": "CO[C@H]1C[C@@H]2CC[C@@H](C)[C@@](O)(O2)C(=O)C(=O)N2CCCC[C@H]2C(=O)O[C@H]([C@H](C)C[C@@H]2CC[C@@H](OCCO)[C@H](OC)C2)CC(=O)[C@H](C)/C=C(\\C)[C@@H](O)[C@@H](OC)C(=O)[C@H](C)C[C@H](C)/C=C/C=C/C=C/1C", "note": "[everolimus]", "values": [{"measurement": "Bioavailability at oral administration", "setting": "[2]", "result": "about 20%"}]}
{"molecule": "CO[C@H]1C[C@@H]2CC[C@@H](C)[C@@](O)(O2)C(=O)C(=O)N2CCCC[C@H]2C(=O)O[C@H]([C@H](C)C[C@@H]2CC[C@@H](O)[C@H](OC)C2)CC(=O)[C@H](C)/C=C(\\C)[C@@H](O)[C@@H](OC)C(=O)[C@H](C)C[C@H](C)/C=C/C=C/C=C/1C", "note": "[sirolimus]", "values": [{"measurement": "Bioavailability at oral administration", "setting": "[2]", "result": "about 20%"}]}
{"molecule": "C=CC[C@@H]1/C=C(\\C)C[C@H](C)C[C@H](OC)[C@H]2O[C@@](O)(C(=O)C(=O)N3CCCC[C@H]3C(=O)O[C@H](/C(C)=C/[C@@H]3CC[C@@H](O)[C@H](OC)C3)[C@H](C)[C@@H](O)CC1=O)[C@H](C)C[C@@H]2OC", "note": "[tacrolimus]", "values": [{"measurement": "Bioavailability at oral administration", "setting": "[2]", "result": "about 20%"}]}
